The target of assay [1] is adrenal 19-hydroxylase. The experiment in a line: in vitro radioenzymatic assay, inhibition of adrenal 19-hydroxylase (19-hydroxylation of radiolabeled deoxycorticosterone). The assay is classed as biochemical, rat, hamster, bovine, primate, or human. As for the experimental part: The compounds of the present invention are useful as 19-hydroxylase inhibitors and antihypertensive agents. […] The test compounds are solubilized in buffer/solvent media at concentrations ranging from 1 nM to 50 μM, then added to assay tubes containing an adrenal mitochondrial suspension, i.e., rat, hamster, bovine, primate, or human, an NADPH-generating system, and radiolabeled deoxycorticosterone. The assay components are incubated for varying time intervals at 25°-37° C. and the reaction is quenched. The hydroxylated corticoids [i.e., 19--HO--DOC (19-hydroxydesoxycorticosterone), 18--HO--DOC(18-hydroxydeoxycorticosterone) and corticosterone] are extracted with organic solvent and isolated by standard chromatographic procedures.

Assay [2] deals with weanling SHR rats. Conditions: administered to weanling SHR rats; Melby et al., 1987; cited from earlier work.
For assay [3] the following is noted: Funder et al., 1978; cited from earlier work.
Assay [4] has as its system bad bladder epithelia. Conditions: relative to aldosterone; Perrone et al., 1981; cited from earlier work.
For assay [5] the following is noted: times the potency of DOC; Kagawa et al., 1957; cited from earlier work.

Usually IC50 stands for the concentration that gives 50% inhibition.

For `C#CC[C@]12CCC(=O)C=C1CC[C@@H]1[C@@H]2CC[C@]2(C)[C@@H](C(=O)CO)CC[C@@H]12` [21-hydroxy-10-(2-propynyl)-19-norpregn-4-ene-3,20-dione], the IC50 in assay [1] (adrenal mitochondrial suspension, NADPH-generating system, radiolabeled deoxycorticosterone, 25°-37° C., time-dependent, read-out: IC50 (time-dependent enzyme inhibition)) is about 50 nM. Further, the “affinity for the 19-hydroxylase active site relative to the natural substrate (DOC)” value in assay [1] (greater affinity than DOC) was determined as 12 times.

Turning to `C#CC[C@]12CCC(=O)C=C1CC[C@@H]1[C@@H]2CC[C@]2(C)C(=O)CC[C@@H]12` [10-(2-propynyl)estr-4-ene-3,17-dione], in assay [2], the development of hypertension result is reported as “retards the development of hypertension” and the “levels of urinary free 19-norDOC” value is on record as “reduces the levels of urinary free 19-norDOC”.

`C[C@]12CC[C@H]3[C@@H](CCC4=CC(=O)CC[C@@H]43)[C@@H]1CC[C@@H]2C(=O)CO` [Example 19-norDOC, 19-nordeoxycorticosterone]: the “hypertensive activity compared to deoxycorticosterone (DOC)” value in assay [3] is “much higher hypertensive activity”. In assay [4], the “stimulating Na^+ transport across bladder epithelia, potency vs aldosterone” value is reported as “equipotent to aldosterone”. In assay [5], the “Na-retaining activity, potency relative to DOC” value is given as “two to five”.

The record behind these values is patent US4910191A, “19-substituted progesterone derivatives useful as 19-hydroxylase inhibitors” (Merrell Dow Pharmaceuticals Inc., priority 1988, dated 1990).
